We go through three compounds from patent US20090010998A1 (priority 2007, published 2009).

For one data set, the system named is BALB/c or A/J mice. Particulars: mouse, in vivo.
The next data set concerns backs of BALB/c mice. In words: in vivo release test, FD&C dye impregnated dissolvable film on abraded skin. The settings on record: one hour after application; visually noted, estimated.

Procedure for backs of BALB/c mice: In one test, the backs of BALB/c mice were treated in multiple sites with an abrasive device (FAST™ device, see, for example, United States Publication No. 20040236269, incorporated herein by reference) where a 60 μm abrasive, was applied to the skin with 10-20 grams of force, oscillating at 840 Hz for 2 seconds over a 5×8 mm spot. FD&C dye impregnated dissolvable films were placed over each treatment site with a semi-occlusive covering (patch). The patch was left on for a period of 1-24 hours.

In the case of `C=O` [formalin], in the data set with BALB/c or A/J mice, the “effect of adjuvant/preservative on antibody titer” value was “higher titer antibody response” and the “effect of adjuvant/preservative on efficiency of TCI” value is listed as “did not show a statistically significant difference”. For FD&C No. 1 dye, the “presence of dye on the mouse skin” value with backs of BALB/c mice is listed as over 75%. As to alum, the “effect of adjuvant/preservative on antibody titer” value with BALB/c or A/J mice was “higher titer antibody response”.
